The values below are quoted from earlier work in patent US5730986A (priority 1995, dated 1998).

The structures appear in SMILES notation.

The conditions of data set [1]: in vivo.
The next data set concerns pepsinogen. To be noted: rat stomach.

On to `C/C=C(\C)C(=O)O[C@H]1C[C@@H](OC(C)=O)[C@@]2(C(=O)OC)CO[C@H]3[C@@H](O)[C@@](C)([C@]45O[C@@]4(C)[C@H]4C[C@@H]5O[C@@H]5OC=C[C@@]54O)[C@H]4[C@]1(CO[C@]4(O)C(=O)OC)[C@@H]32` [Azadirachtin], for which, in the data set on malarial parasites, the “inhibition of the development of malarial parasites” value is recorded as “inhibitory to the development of malarial parasites”. For the same compound, in the data set on larva of P. xylostella L, the activity against larva entry was “active against larva of P. xylostella L”. Further, the pesticide properties result with insects was “phagorepellent, antifeadent and systemic growth disruptor properties in insects”. Regarding `[Mg+2].[OH-].[OH-]` [Mg(OH)2], the adverse reactions result in data set [1] is reported as “loose stools or diarrhea”. Take `CN/C(=N/CCSCc1nc[nH]c1C)NC#N` [cimetidine]: the “inhibition of cytochrome P450-catalyzed drug oxidation and hydroxylation of estradiol” value with cytochrome P450 was “inhibits cytochrome P450 -catalyzed drug oxidation and hydroxylation of estradiol”. For the compound `COc1ccc2[nH]c([S+]([O-])Cc3ncc(C)c(OC)c3C)nc2c1` (stereo not drawn) [omeprazole], the “secretion, synthesis and gene expression of pepsinogen” value in the data set with pepsinogen is “reduces the secretion, synthesis and gene expression of pepsinogen”.
